Source: patent US10179107B2, “Tablet containing dehydroepiandrosterone (DHEA)” (PANTARHEI BIOSCIENCE B.V., priority 2011, dated 2019)

Test: Daily oral administration of DHEA to female users of hormonal oral contraceptives
Type: in vivo, human
Conditions: daily oral dosage of around 50 mg
Description: DHEA can be administered by different routes. Unlike various other known androgens, DHEA is orally active. […] Apart from the ability of DHEA to restore and normalize androgen levels, important significant clinical benefits have been observed on several aspects of sexual function (arousability, responsivity, genital sensation, lubrication), mood and menstrual distress symptoms.

C[C@]12CC[C@H](O)CC1=CC[C@@H]1[C@@H]2CC[C@]2(C)C(=O)CC[C@@H]12 [DHEA, 3-beta-hydroxyandrost-5-en-17-one]
estradiol levels: without increasing estradiol levels | excessively high testosterone levels or clinical symptoms of hyperandrogenicity: without causing excessively high testosterone levels or clinical symptoms of hyperandrogenicity | normalization of free testosterone: at least 50% | normalization of total testosterone: normalizes total testosterone completely
